According to patent US9156872B2, “2′-azido substituted nucleoside derivatives and methods of use thereof for the treatment of viral diseases” (priority 2011, dated 2015):

Test system: HCV replicon cells
Test: Cell-based HCV replicon assay (replicon RNA by Taqman real time PCR)
Conditions: HCV replicon 1b, cells harvested on day 3; read-out: 1b EC50

| Compound | EC50 [µM] |
| --- | --- |
| CCOc1nc(N)nc2c1ncn2[C@@H]1O[C@@H]2COP(=O)(OC3CCC3)O[C@H]2[C@@]1(C)N=[N+]=[N-] (single isomer, unassigned) [Compound 107] | 18.6 |
| CCCOP1(=O)OC[C@H]2O[C@@H](n3ccc(=O)[nH]c3=O)[C@](C)(N=[N+]=[N-])[C@@H]2O1 (stereo partly drawn) [Compound 86] | > 100 |
| C[C@@]1(N=[N+]=[N-])[C@@H]2OP(=O)(OC3CCCC3)OC[C@H]2O[C@H]1n1ccc(=O)[nH]c1=O (stereo partly drawn) [Compound 88] | 0.4 |

Same assay, conditions: Hepatitis C virus, 72 h, HCV replicon 1b, cells harvested on day 3; read-out: 1b EC50

| Compound | EC50 [µM] |
| --- | --- |
| C[C@@]1(N=[N+]=[N-])[C@H](O)[C@@H](CO)O[C@H]1n1ccc(N)nc1=O [Compound 1] | 26 |
| COC(=O)[C@H](C)NP1(=O)OC[C@H]2O[C@@H](n3ccc(N)nc3=O)[C@](C)(N=[N+]=[N-])[C@@H]2O1 (single isomer, unassigned) [Compound 529] | 59 |
| COc1nc(N)nc2c1ncn2[C@@H]1O[C@H](CO)[C@@H](O)[C@@]1(C)N=[N+]=[N-] [Compound 51] | > 100 |
| CCOc1nc(N)nc2c1ncn2[C@@H]1O[C@H](CO)[C@@H](O)[C@@]1(C)N=[N+]=[N-] [Compound 8] | > 100 |

Same assay, conditions: Hepatitis C virus, 72 h, read-out: 1b EC50

| Compound | EC50 [µM] |
| --- | --- |
| CCOc1nc(N)nc2c1ncn2[C@@H]1O[C@H](COP(=O)(N[C@@H](C)C(=O)OC2CCCCC2)Oc2ccc(F)cc2)[C@@H](O)[C@@]1(C)N=[N+]=[N-] (stereo partly drawn) [Compound 64] | 0.4 |
| CCOc1nc(N)nc2c1ncn2[C@@H]1O[C@H](COP(=O)(N[C@@H](C)C(=O)OCc2ccccc2)Oc2ccccc2)[C@@H](O)[C@@]1(C)N=[N+]=[N-] (stereo partly drawn) [Compound 69] | 2.2 |
| CCOc1nc(N)nc2c1ncn2[C@@H]1O[C@H](COP(=O)(N[C@@H](C)C(=O)OC)Oc2cccc3ccccc23)[C@@H](O)[C@@]1(C)N=[N+]=[N-] (single isomer, unassigned) [Compound 355] | 1.3 |
| CCCOC(=O)[C@H](C)NP(=O)(OC[C@H]1O[C@@H](n2ccc(=O)[nH]c2=O)[C@](C)(N=[N+]=[N-])[C@@H]1O)Oc1cccc2ccccc12 (stereo partly drawn) [Compound 374] | 5.6 |
| CCOc1nc(N)nc2c1ncn2[C@@H]1O[C@H](COP(=O)(N[C@@H](C)C(=O)OC2CCCCC2)Oc2ccc(Cl)cc2)[C@@H](O)[C@@]1(C)N=[N+]=[N-] (single isomer, unassigned) [Compound 313] | 0.66 |
| CCOC(=O)c1cccc(OP(=O)(N[C@@H](C)C(=O)OC)OC[C@H]2O[C@@H](n3ccc(=O)[nH]c3=O)[C@](C)(N=[N+]=[N-])[C@@H]2O)c1 (single isomer, unassigned) [Compound 213] | 7.9 |
| COC(=O)[C@H](C)NP(=O)(OC[C@H]1O[C@@H](n2ccc(=O)[nH]c2=O)[C@](C)(N=[N+]=[N-])[C@@H]1O)Oc1ccc(Cl)c(Cl)c1 (stereo partly drawn) [Compound 229] | 0.03 |
| CCOC(=O)[C@H](C)NP(=O)(OC[C@H]1O[C@@H](n2ccc(=O)[nH]c2=O)[C@](C)(N=[N+]=[N-])[C@@H]1O)Oc1ccccc1 (stereo partly drawn) [Compound 15] | 1.4 |
| COC(=O)[C@H](C)NP(=O)(OC[C@H]1O[C@@H](n2cnc3c(OC)nc(N)nc32)[C@](C)(N=[N+]=[N-])[C@@H]1O)Oc1ccccc1 (stereo partly drawn) [Compound 53] | 0.7 |
| CCOc1nc(N)nc2c1ncn2[C@@H]1O[C@H](COP(=O)(N[C@@H](C)C(=O)OC(C)C)Oc2ccc3c(c2)OCO3)[C@@H](O)[C@@]1(C)N=[N+]=[N-] (stereo partly drawn) [Compound 72] | 0.8 |
| CCCC(CCC)COC(=O)[C@H](C)NP(=O)(OC[C@H]1O[C@@H](n2ccc(=O)[nH]c2=O)[C@](C)(N=[N+]=[N-])[C@@H]1O)Oc1ccccc1 (stereo partly drawn) [Compound 328] | 2.1 |
| CC(C)OC(=O)[C@H](C)NP(=O)(OC[C@H]1O[C@@H](n2ccc(=O)[nH]c2=O)[C@](C)(N=[N+]=[N-])[C@@H]1O)Oc1ccc2c(c1)OCO2 (stereo partly drawn) [Compound 42] | 25 |
| CCOc1nc(N)nc2c1ncn2[C@@H]1O[C@H](COP(=O)(N[C@@H](C)C(=O)OC)Oc2ccc(F)cc2)[C@@H](O)[C@@]1(C)N=[N+]=[N-] (single isomer, unassigned) [Compound 173] | 0.6 |
| C[C@H](NP(=O)(OC[C@H]1O[C@@H](n2ccc(N)nc2=O)[C@](C)(N=[N+]=[N-])[C@@H]1O)Oc1ccccc1)C(=O)OCC(C)(C)C (stereo partly drawn) [Compound 14] | 32 |
| CCCCOC(=O)[C@H](C)NP(=O)(OC[C@H]1O[C@@H](n2ccc(=O)[nH]c2=O)[C@](C)(N=[N+]=[N-])[C@@H]1O)Oc1ccc(Cl)cc1 (stereo partly drawn) [Compound 369] | 0.5 |
| CCOc1nc(N)nc2c1ncn2[C@@H]1O[C@H](COP(=O)(N[C@@H](C)C(=O)OC(C)C)Oc2ccc(Cl)c(Cl)c2)[C@@H](O)[C@@]1(C)N=[N+]=[N-] (stereo partly drawn) [Compound 348] | 5 |
| CC(C)COC(=O)[C@H](C)NP(=O)(OC[C@H]1O[C@@H](n2ccc(N)nc2=O)[C@](C)(N=[N+]=[N-])[C@@H]1O)Oc1ccccc1 (stereo partly drawn) [Compound 48] | 3.1 |
| COC(=O)[C@H](C)NP(=O)(OC[C@H]1O[C@@H](n2cnc3c(OC)nc(N)nc32)[C@](C)(N=[N+]=[N-])[C@@H]1O)Oc1ccccc1Cl (single isomer, unassigned) [Compound 256] | 1.4 |
| COC(=O)[C@H](C)NP(=O)(OC[C@H]1O[C@@H](n2ccc(=O)[nH]c2=O)[C@](C)(N=[N+]=[N-])[C@@H]1O)Oc1cccc2ccccc12 (stereo partly drawn) [Compound 41] | 0.003 |
| COC(=O)[C@H](C)NP(=O)(OC[C@H]1O[C@@H](n2ccc(=O)[nH]c2=O)[C@](C)(N=[N+]=[N-])[C@@H]1O)Oc1cc(C)ccc1C(C)C (stereo partly drawn) [Compound 379] | 1.2 |
| CCOP1(=O)OC[C@H]2O[C@@H](n3ccc(=O)[nH]c3=O)[C@](C)(N=[N+]=[N-])[C@@H]2O1 (stereo partly drawn) [Compound 567] | > 100 |
| CCCOC(=O)[C@H](C)NP(=O)(OC[C@H]1O[C@@H](n2cnc3c(OCC)nc(N)nc32)[C@](C)(N=[N+]=[N-])[C@@H]1O)Oc1ccccc1 (stereo partly drawn) [Compound 29] | 0.5 |
| COc1nc(N)nc2c1ncn2[C@@H]1O[C@H](COP(=O)(N[C@@H](C)C(=O)OC(C)C)Oc2ccc(F)cc2)[C@@H](O)[C@@]1(C)N=[N+]=[N-] (single isomer, unassigned) [Compound 269] | 0.7 |
| COC(=O)[C@H](C)NP(=O)(OC[C@H]1O[C@@H](n2ccc(=O)[nH]c2=O)[C@](C)(N=[N+]=[N-])[C@@H]1O)Oc1ccccc1 (single isomer, unassigned) [Compound 158] | 9 |
| C[C@H](NP(=O)(OC[C@H]1O[C@@H](n2ccc(=O)[nH]c2=O)[C@](C)(N=[N+]=[N-])[C@@H]1O)Oc1ccccc1)C(=O)OC1CCCCC1 (stereo partly drawn) [Compound 144] | 0.7 |

Same assay, conditions: read-out: 1b EC50

| Compound | EC50 [µM] |
| --- | --- |
| COC(=O)[C@H](C)NP(=O)(OC[C@H]1O[C@@H](n2ccc(N)nc2=O)[C@](C)(N=[N+]=[N-])[C@@H]1O)Oc1ccccc1Cl (single isomer, unassigned) [Compound 202] | 10 |
| COC(=O)[C@H](C)NP(=O)(OC[C@H]1O[C@@H](n2ccc(=O)[nH]c2=O)[C@](C)(N=[N+]=[N-])[C@@H]1O)Oc1cccc2ccccc12 (single isomer, unassigned) [Compound 218] | 4.6 |
| COC(=O)[C@H](C)NP(=O)(OC[C@H]1O[C@@H](n2ccc(N)nc2=O)[C@](C)(N=[N+]=[N-])[C@@H]1O)Oc1ccccc1Cl (single isomer, unassigned) [Compound 201] | 12 |
| CCOc1nc(N)nc2c1ncn2[C@@H]1O[C@H](COP(=O)(N[C@@H](C)C(=O)OCC(C)C)Oc2ccccc2)[C@@H](O)[C@@]1(C)N=[N+]=[N-] (stereo partly drawn) [Compound 60] | 2 |
| COC(=O)[C@H](C)NP(=O)(OC[C@H]1O[C@@H](n2ccc(N)nc2=O)[C@](C)(N=[N+]=[N-])[C@@H]1O)Oc1ccc(Cl)c(Cl)c1 (single isomer, unassigned) [Compound 193] | 61 |
| CC(C)COC(=O)[C@H](C)NP(=O)(OC[C@H]1O[C@@H](n2ccc(=O)[nH]c2=O)[C@](C)(N=[N+]=[N-])[C@@H]1O)Oc1ccccc1 (single isomer, unassigned) [Compound 211] | 0.8 |
| CCOc1nc(N)nc2c1ncn2[C@@H]1O[C@H](COP(=O)(N[C@@H](C)C(=O)OC(C)C)Oc2ccccc2Cl)[C@@H](O)[C@@]1(C)N=[N+]=[N-] (single isomer, unassigned) [Compound 316] | 27.9 |
| COc1nc(N)nc2c1ncn2[C@@H]1O[C@H](COP(=O)(N[C@@H](C)C(=O)OC2CCCCC2)Oc2ccc(F)cc2)[C@@H](O)[C@@]1(C)N=[N+]=[N-] (single isomer, unassigned) [Compound 265] | 2.5 |
| CC(C)OC(=O)[C@H](C)NP(=O)(OC[C@H]1O[C@@H](n2ccc(N)nc2=O)[C@](C)(N=[N+]=[N-])[C@@H]1O)Oc1ccccc1Cl (stereo partly drawn) [Compound 96] | 0.6 |
| COC(=O)[C@H](C)NP(=O)(OC[C@H]1O[C@@H](n2ccc(N)nc2=O)[C@](C)(N=[N+]=[N-])[C@@H]1O)Oc1ccccc1Cl (stereo partly drawn) [Compound 94] | 10 |
| CCOc1nc(N)nc2c1ncn2[C@@H]1O[C@H](COP(=O)(N[C@@H](C)C(=O)OC(C)C)Oc2ccccc2)[C@@H](O)[C@@]1(C)N=[N+]=[N-] (single isomer, unassigned) [Compound 166] | 0.8 |
| COc1nc(N)nc2c1ncn2[C@@H]1O[C@H](COP(=O)(N[C@@H](C)C(=O)OCC(C)C)Oc2ccc(Cl)cc2)[C@@H](O)[C@@]1(C)N=[N+]=[N-] (single isomer, unassigned) [Compound 296] | 0.1 |
| CCOC(=O)[C@H](C)NP(=O)(OC[C@H]1O[C@@H](n2cnc3c(OCC)nc(N)nc32)[C@](C)(N=[N+]=[N-])[C@@H]1O)Oc1ccc(Cl)cc1 (single isomer, unassigned) [Compound 353] | 0.9 |
| CCOP1(=O)OC[C@H]2O[C@@H](n3ccc(=O)[nH]c3=O)[C@](C)(N=[N+]=[N-])[C@@H]2O1 (stereo partly drawn) [Compound 568] | > 100 |
| CCOc1nc(N)nc2c1ncn2[C@@H]1O[C@H](COP(=O)(N[C@@H](C)C(=O)OCC(C)C)Oc2ccccc2)[C@@H](O)[C@@]1(C)N=[N+]=[N-] (stereo partly drawn) [Compound 62] | 0.8 |
| CC(C)OC(=O)[C@H](C)NP(=O)(OC[C@H]1O[C@@H](n2ccc(N)nc2=O)[C@](C)(N=[N+]=[N-])[C@@H]1O)Oc1ccccc1Cl (single isomer, unassigned) [Compound 332] | 20 |
